Test results taken from paper PMC10141580, “Cyclic Dichalcogenides Extend the Reach of Bioreductive Prodrugs to Harness Thiol/Disulfide Oxidoreductases: Applications to seco-Duocarmycins Targeting the Thioredoxin System” (ACS Central Science, 2023).
pIC50: −log10 of the molar value. Several values for one entry are separate records, joined by “and”; a condition that tells them apart may be missing. Identical values can stand only once. Like-named read-outs stand apart in the source and are kept apart here.

Tested on: panel of 140 standard cancer cell lines
Experiment: ProliFiler-140 cancer cell line screen (CellTiterGlo, 72 h)
Assay type: cell-based
Details: for IC50: read-out: IC50 [M] (ProliFiler-140); for pIC50: read-out: IC50
Method: Incubations were performed for 72 h before automated viability readout with CellTiterGlo (Figure 8).
End of Figure S11 (part 5 of 5): ProliFiler-140 cancer cell line screening for cytotoxicity of the prodrugs.
8-data-point dose response curves from CellTiter-Glo® viability readout.
ProliFiler-140 cell line panel part V

**Q.** Which IC50 (MEC-1 (Blood)) does the source give for `COc1cc2cc(C(=O)N3C[C@@H](CCl)c4c3cc(OC(=O)N(CCC(=O)N3CCN(C)CC3)C3CCCCC3)c3ccccc43)[nH]c2c(OC)c1OC` [P-CC60-CBI-TMI] here?
**A.** 8.9e-08 M and 8.89e-08 M

**Q.** And the IC50 (MKN-1 (Stomach))?
**A.** 1.5e-06 M and 1.53e-06 M

**Q.** And the IC50 (MKN-45 (Stomach))?
**A.** 4.87e-07 M and 4.9e-07 M

**Q.** What about the IC50 (MOLM-13 (Blood)) of the same compound?
**A.** 6.1e-08 M and 6.05e-08 M

**Q.** And the IC50 (MOLT-4 (Blood))?
**A.** 7.6e-08 M and 7.57e-08 M

**Q.** What about the IC50 (MV4-11 (Blood)) of the same compound?
**A.** 1.2e-08 M and 1.18e-08 M

**Q.** What about the IC50 (Mia PaCA 2 (Pancreas)) of the same compound?
**A.** 3.75e-07 M and 3.8e-07 M

**Q.** What about the IC50 (NALM-6 (Blood)) of the same compound?
**A.** 5.58e-08 M and 5.6e-08 M

**Q.** And the IC50 (NCI-H82 (Lung))?
**A.** 7.5e-07 M

**Q.** What about the IC50 (NCI-H292 (Lung)) of the same compound?
**A.** 2.6e-07 M and 2.59e-07 M

**Q.** What about the IC50 (NCI-H441 (Lung)) of the same compound?
**A.** 2.94e-07 M and 2.9e-07 M

**Q.** What about the IC50 (NCI-H838 (Lung)) of the same compound?
**A.** 7.5e-07 M and 7.54e-07 M

**Q.** What about the IC50 (NCI-H1048 (Lung)) of the same compound?
**A.** 5.9e-08 M and 5.92e-08 M

**Q.** And the IC50 (NCI-H1437 (Lung))?
**A.** 3.01e-07 M and 3e-07 M

**Q.** And the IC50 (NCI-H1563 (Lung))?
**A.** 1.7e-06 M and 1.69e-06 M

**Q.** And the IC50 (NCI-H1573 (Lung))?
**A.** 1.1e-06 M and 1.07e-06 M

**Q.** What about the IC50 (NCI-H1581 (Lung)) of the same compound?
**A.** 4.32e-07 M and 4.3e-07 M

**Q.** What about the IC50 (NCI-H1703 (Lung)) of the same compound?
**A.** 8.1e-07 M and 8.15e-07 M

**Q.** What about the IC50 (NCI-H1838 (Lung)) of the same compound?
**A.** 8.2e-07 M and 8.19e-07 M

**Q.** And the IC50 (NCI-H2009 (Lung))?
**A.** 4.22e-07 M and 4.2e-07 M

**Q.** What about the IC50 (NCI-H2110 (Lung)) of the same compound?
**A.** 1.4e-07 M and 1.44e-07 M

**Q.** And the IC50 (NCI-H2286 (Lung))?
**A.** 1.2e-07 M and 1.25e-07 M

**Q.** What about the IC50 (NCI-N87 (Stomach)) of the same compound?
**A.** 1.1e-06 M and 1.15e-06 M

**Q.** And the IC50 (OCI-AML3 (Blood))?
**A.** 1.3e-07 M and 1.33e-07 M

**Q.** What about the IC50 (OCI-AML5 (Blood)) of the same compound?
**A.** 3.4e-08 M and 3.39e-08 M

**Q.** And the IC50 (OCI-LY19 (Blood))?
**A.** 1.53e-08 M and 1.5e-08 M

**Q.** What about the IC50 (OPM-2 (Blood)) of the same compound?
**A.** 6.61e-07 M and 6.6e-07 M

**Q.** What about the IC50 (OV56 (Ovary)) of the same compound?
**A.** 2.02e-07 M and 2e-07 M

**Q.** And the IC50 (OVCAR-3 (Ovary))?
**A.** 1e-06 M and 1.02e-06 M

**Q.** What about the pIC50 (OVCAR-3) of the same compound?
**A.** 6.00

**Q.** And the IC50 (OVK18 (Ovary))?
**A.** 2e-07 M

**Q.** And the IC50 (P31/FUJ (Blood))?
**A.** 1.9e-07 M and 1.88e-07 M

**Q.** And the IC50 (PANC-1 (Pancreas))?
**A.** 1.4e-06 M and 1.38e-06 M

**Q.** And the IC50 (PC3 (Prostate))?
**A.** 5.17e-07 M and 5.2e-07 M

**Q.** And the IC50 (PC-9 (Lung))?
**A.** 1.1e-07 M and 1.14e-07 M

**Q.** What about the IC50 (RERF-LC-Ad2 (Lung)) of the same compound?
**A.** 7.8e-07 M and 7.84e-07 M

**Q.** What about the IC50 (RERF-LC-MS (Lung)) of the same compound?
**A.** 4.59e-07 M and 4.6e-07 M

**Q.** What about the IC50 (RKO (Colon)) of the same compound?
**A.** 2.98e-07 M and 3e-07 M

**Q.** And the IC50 (RL95-2 (Endometrium))?
**A.** 7.43e-07 M and 7.4e-07 M

**Q.** And the IC50 (RPMI 8226 (Blood))?
**A.** 3.38e-07 M and 3.4e-07 M

**Q.** What about the pIC50 (RPMI 8226) of the same compound?
**A.** 6.47

**Q.** And the IC50 (SCH (Stomach))?
**A.** 3.9e-07 M and 3.87e-07 M

**Q.** What about the IC50 (SCLC-21H (Lung)) of the same compound?
**A.** 1.58e-07 M and 1.6e-07 M

**Q.** And the IC50 (SJSA-1 (Bone))?
**A.** 3.78e-07 M and 3.8e-07 M

**Q.** And the IC50 (SK-BR-3 (Breast))?
**A.** 3.7e-07 M

**Q.** And the IC50 (SK-ES-1 (Bone))?
**A.** 3.35e-08 M and 3.4e-08 M

**Q.** And the IC50 (SK-LU-1 (Lung))?
**A.** 1.6e-07 M and 1.62e-07 M

**Q.** And the IC50 (SK-MEL-3 (Skin))?
**A.** 1e-06 M and 1.03e-06 M

**Q.** And the IC50 (SK-N-FI (Brain))?
**A.** 6.81e-07 M and 6.8e-07 M

**Q.** What about the IC50 (SK-N-MC (Brain)) of the same compound?
**A.** 1.3e-08 M and 1.33e-08 M

**Q.** What about the IC50 (SK-N-SH (Brain)) of the same compound?
**A.** 7.5e-07 M and 7.45e-07 M

**Q.** And the IC50 (SK-OV3 (Ovary))?
**A.** 4.38e-07 M and 4.4e-07 M

**Q.** What about the pIC50 (SK-OV3) of the same compound?
**A.** 6.36

**Q.** And the IC50 (SNU840 (Ovary))?
**A.** 6.99e-08 M and 7e-08 M

**Q.** What about the IC50 (SNU-1 (Stomach)) of the same compound?
**A.** 2.3e-07 M and 2.27e-07 M

**Q.** What about the IC50 (SNU-16 (Stomach)) of the same compound?
**A.** 7.09e-07 M and 7.1e-07 M

**Q.** What about the IC50 (SNU-216 (Stomach)) of the same compound?
**A.** 1.84e-06 M and 1.8e-06 M

**Q.** What about the IC50 (SU-DHL-5 (Blood)) of the same compound?
**A.** 5e-08 M and 4.98e-08 M

**Q.** And the IC50 (SW480 (Colon))?
**A.** 3.31e-07 M and 3.3e-07 M

**Q.** And the IC50 (SW620 (Colon))?
**A.** 6.99e-07 M and 7e-07 M

**Q.** And the IC50 (SW948 (Colon))?
**A.** 6.79e-07 M and 6.8e-07 M

**Q.** And the IC50 (SW-1783 (Brain))?
**A.** 4.78e-07 M and 4.8e-07 M

**Q.** And the IC50 (Saos-2 EC (Bone))?
**A.** 2.34e-07 M and 2.3e-07 M

**Q.** What about the IC50 (SiHa (Ovary)) of the same compound?
**A.** 6.13e-07 M and 6.1e-07 M

**Q.** And the IC50 (T84 (Colon))?
**A.** 9.09e-07 M and 9.1e-07 M

**Q.** And the IC50 (T98G (Brain))?
**A.** 6.6e-07 M

**Q.** What about the IC50 (T-47D (Breast)) of the same compound?
**A.** 1e-06 M and 1.04e-06 M

**Q.** And the pIC50 (T-47D)?
**A.** 6.00

**Q.** And the IC50 (U2OS (Bone))?
**A.** 1.31e-07 M and 1.3e-07 M

**Q.** And the IC50 (U87MG (Brain))?
**A.** 1.2e-06 M and 1.22e-06 M

**Q.** What about the IC50 (U118MG (Brain)) of the same compound?
**A.** 3.92e-07 M and 3.9e-07 M

**Q.** And the IC50 (U251MG (Brain))?
**A.** 2e-06 M

**Q.** And the IC50 (U-266 (Blood))?
**A.** 1.41e-07 M and 1.4e-07 M

**Q.** What about the IC50 (U-937 (Blood)) of the same compound?
**A.** 7.39e-08 M and 7.4e-08 M

**Q.** And the IC50 (ZR-75-1 (Breast))?
**A.** 1.42e-06 M and 1.4e-06 M

**Q.** And the IC50?
**A.** 2.36e-07 M and 2.4e-07 M
